Target: EZH2 (Homo sapiens (Human), UniProt Q15910)
Test: E-cadherin promoter luciferase reporter gene primary screening in 293T cells
Assay type: cell-based
Settings: 293T cells treated for 24 hours, Dual-Glo luciferase; for 1 μM relative fluorescence intensity: compound 1 μM; for 10 μM relative fluorescence intensity: compound 10 μM; for 3 μM relative fluorescence intensity: compound 3 μM
Description: EZH2 suppresses the expression of downstream E-cadherin, and upon EZH2 suppression, expression of E-cadherin will increase. Based on such principle, a reporter gene expression vector was constructed using luciferase.
The amplified fragments after PCR and the PGL4.1 vector (purchased from TAKARA, Japan) were respectively subjected to enzyme digestion with SacI and BglII (purchased from TAKARA, Japan), and then purified with PCR cleanup kit (Axygen PCR cleanup kit). Subsequently, the purified and enzyme-digested PCR products was ligated to the purified and enzyme-digested PGL4.1 vector using ligase solution I (DNA Ligation Kit Ver.2.1, purchased from TAKARA, Japan), and subjected to transformation. Single clones were then screened out and subjected to sequencing, and the obtained positive plasmid containing promoter fragments of Ecadherin was named E-cadherin RE-PGL4.1.
Meanwhile, a Renilla fluorescent vector was constructed using PCDNA4.1 (purchased from Thermofisher, USA) as the template to amplify the fragment of CMV promoter. After enzymatic digestion of the amplified CMV sequences and pGL4.70 vector (purchased from Promega, USA) with KpnI and XhoI (purchased from Promega, USA), purification was conducted with PCR cleanup kit (Axygen PCR cleanup kit). Then the enzyme-digested PCR product was ligated to the enzyme-digested PGL4.70 vector using ligase solution I (DNA Ligation Kit Ver.2.1, purchased from TAKARA, Japan) and the resultant was subjected to transformation. Subsequently single clones were screened and subjected to sequencing, and the obtained plasmid that contained CMV sequence was named as Plasmid Renilla luciferase-pGL4.70. Said plasmid utilized CMV promoter to achieve high expression of Renilla luciferase, which served as the control fluorescence for the primary screening system.
The cells were firstly added with 20 μL Dual-Glo® Luciferase Assay Reagent, then incubated under room temperature for 10 minutes, and read on microplate reader Spectramax i3 (Molecular Devices, USA) to obtain the data of primary screening, which is shown in Table 1.

Chain of EZH2 (Q15910 whole entry): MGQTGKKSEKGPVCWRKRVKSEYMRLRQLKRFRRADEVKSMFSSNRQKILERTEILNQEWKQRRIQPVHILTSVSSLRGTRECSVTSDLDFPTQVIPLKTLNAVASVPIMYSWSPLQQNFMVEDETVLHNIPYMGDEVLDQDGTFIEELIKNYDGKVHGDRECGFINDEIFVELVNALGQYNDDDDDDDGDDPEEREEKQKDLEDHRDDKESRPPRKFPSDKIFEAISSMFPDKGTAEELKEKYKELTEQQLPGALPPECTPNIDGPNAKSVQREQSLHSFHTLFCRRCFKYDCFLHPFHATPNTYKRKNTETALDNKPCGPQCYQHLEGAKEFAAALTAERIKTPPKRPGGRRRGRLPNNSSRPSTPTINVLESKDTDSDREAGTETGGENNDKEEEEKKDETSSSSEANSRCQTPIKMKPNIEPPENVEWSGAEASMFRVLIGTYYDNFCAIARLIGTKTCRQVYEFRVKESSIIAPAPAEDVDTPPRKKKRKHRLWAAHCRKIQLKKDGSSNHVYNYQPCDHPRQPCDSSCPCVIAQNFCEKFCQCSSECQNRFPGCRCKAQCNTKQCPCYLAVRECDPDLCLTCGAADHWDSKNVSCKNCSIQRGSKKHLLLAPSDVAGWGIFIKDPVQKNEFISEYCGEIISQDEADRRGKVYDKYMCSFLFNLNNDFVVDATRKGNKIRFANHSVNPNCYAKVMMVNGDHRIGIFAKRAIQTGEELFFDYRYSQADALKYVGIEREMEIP
Chain of EZH2 (O75530 whole entry partner): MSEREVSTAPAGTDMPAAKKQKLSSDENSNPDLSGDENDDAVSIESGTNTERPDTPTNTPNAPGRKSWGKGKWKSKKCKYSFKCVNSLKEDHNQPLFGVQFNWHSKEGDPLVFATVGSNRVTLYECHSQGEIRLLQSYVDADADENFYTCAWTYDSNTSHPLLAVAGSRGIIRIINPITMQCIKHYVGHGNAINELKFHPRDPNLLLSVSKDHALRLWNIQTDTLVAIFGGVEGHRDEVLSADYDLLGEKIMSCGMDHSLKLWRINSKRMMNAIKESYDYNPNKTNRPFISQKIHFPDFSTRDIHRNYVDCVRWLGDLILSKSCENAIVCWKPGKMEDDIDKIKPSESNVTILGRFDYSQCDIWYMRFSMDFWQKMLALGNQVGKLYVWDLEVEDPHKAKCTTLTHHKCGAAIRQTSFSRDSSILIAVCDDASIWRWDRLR
Chain of EZH2 (Q15022 whole entry partner): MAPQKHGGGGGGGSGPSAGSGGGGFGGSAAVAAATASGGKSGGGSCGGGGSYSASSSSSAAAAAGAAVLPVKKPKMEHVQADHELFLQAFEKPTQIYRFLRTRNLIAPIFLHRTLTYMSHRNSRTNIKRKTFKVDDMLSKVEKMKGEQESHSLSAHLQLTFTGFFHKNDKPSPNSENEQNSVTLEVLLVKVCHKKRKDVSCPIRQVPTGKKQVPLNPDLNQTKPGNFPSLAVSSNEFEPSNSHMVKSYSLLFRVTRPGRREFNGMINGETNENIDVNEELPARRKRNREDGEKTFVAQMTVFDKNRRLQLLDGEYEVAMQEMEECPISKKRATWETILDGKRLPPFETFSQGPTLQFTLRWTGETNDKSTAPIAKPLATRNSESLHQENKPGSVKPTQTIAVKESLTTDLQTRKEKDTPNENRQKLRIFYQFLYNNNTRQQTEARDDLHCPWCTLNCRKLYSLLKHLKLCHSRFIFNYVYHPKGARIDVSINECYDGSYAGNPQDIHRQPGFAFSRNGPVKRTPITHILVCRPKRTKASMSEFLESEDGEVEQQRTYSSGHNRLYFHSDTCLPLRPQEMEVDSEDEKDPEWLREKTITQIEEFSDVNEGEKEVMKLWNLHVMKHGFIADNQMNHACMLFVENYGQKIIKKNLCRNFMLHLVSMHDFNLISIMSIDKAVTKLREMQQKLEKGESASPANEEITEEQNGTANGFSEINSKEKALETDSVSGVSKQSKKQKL
Chain of EZH2 (Q09028 whole entry partner): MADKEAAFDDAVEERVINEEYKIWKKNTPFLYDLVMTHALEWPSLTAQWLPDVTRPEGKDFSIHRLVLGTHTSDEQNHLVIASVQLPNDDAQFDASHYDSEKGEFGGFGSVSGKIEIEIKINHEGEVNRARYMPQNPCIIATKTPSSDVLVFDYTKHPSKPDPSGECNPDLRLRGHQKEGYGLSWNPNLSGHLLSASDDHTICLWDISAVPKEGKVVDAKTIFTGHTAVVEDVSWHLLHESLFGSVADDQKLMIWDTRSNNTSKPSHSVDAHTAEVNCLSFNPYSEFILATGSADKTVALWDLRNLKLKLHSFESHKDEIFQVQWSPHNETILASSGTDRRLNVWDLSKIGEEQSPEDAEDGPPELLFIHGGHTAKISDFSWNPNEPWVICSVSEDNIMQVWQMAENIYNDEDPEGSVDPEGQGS

Row | Compound | 1 μM relative fluorescence intensity | 10 μM relative fluorescence intensity | 3 μM relative fluorescence intensity
1 | CCN(C(=O)C1CCCC1)c1cc(-c2ccc(C#N)c(F)c2)cc(C(=O)NCc2c(C)cc(C)[nH]c2=O)c1C [Compound 19, 4′-cyano-N-((4,6-dimethyl-2-oxo-1,2-dihydropyridin-3-yl)methyl)-5-(N-ethylcyclopentanecarboxamido)-3′-fluoro-4-methyl-[1,1′-diphenyl]-3-carboxamide] | 189 | 310 | 228
2 | CCN(C(=O)C1CCCC1)c1cc(-c2ccc(C(=O)N3CCOCC3)cc2)cc(C(=O)NCc2c(C)cc(C)[nH]c2=O)c1C [Compound 20, N-((4,6-dimethyl-2-oxo-1,2-dihydropyridin-3-yl)methyl)-5-(N-ethylcyclopentanecarboxamido)-4-methyl-4′-(morpholin-4-carbonyl)-[1,1′-diphenyl]-3-carboxamide] | 193 | 227 | 213
3 | CCN(C(=O)C1CCCC1)c1cc(-c2ccc(CC(=O)N3CCOCC3)cc2)cc(C(=O)NCc2c(C)cc(C)[nH]c2=O)c1C [Compound 22, N-((4,6-dimethyl-2-oxo-1,2-dihydropyridin-3-yl)methyl)-5-(N-ethylcyclopentanecarboxamido)-4-methyl-4′-(2-morpholinyl-2-oxoethyl)-[1,1′-diphenyl]-3-carboxamide] | 171 | 242 | 194
4 | CCN1CCN(Cc2ccc(-c3cc(C(=O)NCc4c(C)cc(C)[nH]c4=O)c(C)c(N(CC)C(=O)C4CCCC4)c3)cc2)CC1 [Compound 23, N-((4,6-dimethyl-2-oxo-1,2-dihydropyridin-3-yl)methyl)-5-(N-ethylcyclopentanecarboxamido)-4′-((4-ethylpiperazin-1-yl)methyl)-4-methyl-[1,1′-diphenyl]-3-carboxamide] | 290 | 343 | 346
5 | CCN(C(=O)C1CCCC1)c1cc(-c2ccc(NS(=O)(=O)C3CC3)cc2)cc(C(=O)NCc2c(C)cc(C)[nH]c2=O)c1C [Compound 28, 4′-(cyclopropanesulfonamide)-N-((4,6-dimethyl-2-oxo-1,2-dihydropyridin-3-yl)methyl)-5-(N-ethylcyclopentanecarboxamido)-4-methyl-[1,1′-diphenyl]-3-carboxamide] | 163.93 | 345.23 | 
6 | CCN(C(=O)C1CCCC1)c1cc(-c2ccc(OCCCN3CCOCC3)cc2)cc(C(=O)NCc2c(C)cc(C)[nH]c2=O)c1C [Compound 30, N-((4,6-dimethyl-2-oxo-1,2-dihydropyridin-3-yl)methyl)-5-(N-ethylcyclopentanecarboxamido)-4-methyl-4′-(3-morpholinopropoxy)-[1,1′-diphenyl]-3-carboxamide] | 253.44 | 231.21 | 
7 | CCN(C(=O)C1CCCC1)c1cc(C(N)=O)cc(C(=O)NCc2c(C)cc(C)[nH]c2=O)c1C [Compound 34, N^1-((4,6-dimethyl-2-oxo-1,2-dihydropyridin-3-yl)methyl)-5-(N-ethylcyclopentanecarboxamido)-6-methyl-isophthalamide] | 98.36 | 109.72 | 
8 | CCN(C(=O)C1CCCC1)c1cc(-c2ccc(CN3CCNC[C@H]3CO)cc2)cc(C(=O)NCc2c(C)cc(C)[nH]c2=O)c1C [Compound 35] | 83.82 | 123.19 | 
9 | CCN(C(=O)C1CCCC1)c1cc(-c2ccc(Oc3ccccc3)cc2)cc(C(=O)NCc2c(C)cc(C)[nH]c2=O)c1C [Compound 41, N-((4,6-dimethyl-2-oxo-1,2-dihydropyridin-3-yl)methyl)-5-(N-ethylcyclopentanecarboxamido)-4-methyl-4′-phenoxy-[1,1′-diphenyl]-3-carboxamide] | 156.04 | 183.38 | 

More lines, now with the values ahead:

Row | 1 μM relative fluorescence intensity | 10 μM relative fluorescence intensity | 3 μM relative fluorescence intensity | Compound
10 | 262.61 | 335.61 |  | CCN(C(=O)C1CCCC1)c1cc(-c2ccc(N3CCN(CC4CC4)CC3)nc2)cc(C(=O)NCc2c(C)cc(C)[nH]c2=O)c1C [Compound 15, 5-(6-(4-(cyclopropylmethyl)piperazin-1-yl)pyridin-3-yl)-N-((4,6-dimethyl-2-oxo-1,2-dihydropyridin-3-yl)methyl)-3-(N-ethylcyclopentanecarboxamido)-2-methylbenzamide]
11 | 172 | 303 | 223 | CCN(C(=O)C1CCCC1)c1cc(-c2ccnc(N3CCN(C)CC3)c2)cc(C(=O)NCc2c(C)cc(C)[nH]c2=O)c1C [Compound 17, N-((4,6-dimethyl-2-oxo-1,2-dihydropyridin-3-yl)methyl)-3-(N-ethylcyclopentanecarboxamido)-2-methyl-5-(2-(4-methylpiperazin-1-yl)pyridin-4-yl)benzamide]
12 | 289 | 423 | 356 | CCN(C(=O)C1CCCC1)c1cc(-c2ccc(N3CCN(C(C)C)CC3)nc2)cc(C(=O)NCc2c(C)cc(C)[nH]c2=O)c1C [Compound 18, N-((4,6-dimethyl-2-oxo-1,2-dihydropyridin-3-yl)methyl)-3-(N-ethylcyclopentanecarboxamido)-5-(6-(4-isopropylpiperazin-1-yl)pyridin-3-yl)-2-methylbenzamide]
13 | 170 | 339 | 225 | CCN(C(=O)C1CCCC1)c1cc(-c2ccc(N3CCOCC3)cc2)cc(C(=O)NCc2c(C)cc(C)[nH]c2=O)c1C [Compound 21, N-((4,6-dimethyl-2-oxo-1,2-dihydropyridin-3-yl)methyl)-5-(N-ethylcyclopentanecarboxamido)-4-methyl-4′-morpholinyl-[1,1′-diphenyl]-3-carboxamide]
14 | 204.86 | 335.96 |  | CCN1CCN(c2ccc(-c3cc(C(=O)NCc4c(C)cc(C)[nH]c4=O)c(C)c(N(CC)C(=O)C4CCCC4)c3)cc2)CC1 [Compound 27, N-((4,6-dimethyl-2-oxo-1,2-dihydropyridin-3-yl)methyl)-5-(N-ethylcyclopentanecarboxamido)-4′-(4-ethylpiperazin-1-yl)-4-methyl-[1,1′-diphenyl]-3-carboxamide]
15 | 211.26 | 312.36 |  | CCN(C(=O)C1CCCC1)c1cc(-c2ccc(N3CCN(C)CC3)nc2)cc(C(=O)NCc2c(C)cc(C)[nH]c2=O)c1C [Compound 36, N-((4,6-dimethyl-2-oxo-1,2-dihydropyridin-3-yl)methyl)-3-(N-ethylcyclopentanecarboxamido)-2-methyl-5-(6-(4-methylpiperazin-1-yl)pyridin-3-yl)benzamide]
16 | 163.93 | 345.23 |  | CCN(C(=O)C1CCCC1)c1cc(-c2ccc(N3CCC(N)CC3)nc2)cc(C(=O)NCc2c(C)cc(C)[nH]c2=O)c1C [Compound 37, 5-(6-(4-aminopiperidin-1-yl)pyridin-3-yl)-N-((4,6-dimethyl-2-oxo-1,2-dihydropyridin-3-yl)methyl)-3-(N-ethylcyclopentanecarboxamido)-2-methylbenzamide]

Source: patent publication US10647700B2, “EZH2 inhibitor and use thereof” (TARAPEUTICS SCIENCE INC., priority 2017, dated 2020)
